The source of these data is ChEMBL document CHEMBL1134077, “Synthesis of potent and selective dopamine D(4) antagonists as candidate radioligands” (Bioorg Med Chem Lett, 2001).

Assay [1] addresses T1, 5-hydroxytryptamine receptor 1A (Homo sapiens, UniProt P08908).
T1 sequence (P08908 whole entry): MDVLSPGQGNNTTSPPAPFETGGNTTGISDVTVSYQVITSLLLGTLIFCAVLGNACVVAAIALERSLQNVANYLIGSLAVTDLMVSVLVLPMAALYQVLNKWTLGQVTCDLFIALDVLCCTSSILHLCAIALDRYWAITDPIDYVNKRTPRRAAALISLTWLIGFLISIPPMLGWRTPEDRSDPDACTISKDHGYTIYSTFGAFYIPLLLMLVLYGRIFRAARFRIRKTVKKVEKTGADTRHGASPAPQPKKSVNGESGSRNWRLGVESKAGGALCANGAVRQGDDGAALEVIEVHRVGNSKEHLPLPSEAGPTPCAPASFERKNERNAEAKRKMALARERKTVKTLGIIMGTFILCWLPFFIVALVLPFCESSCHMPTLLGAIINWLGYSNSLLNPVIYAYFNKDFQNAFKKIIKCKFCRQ
Put plainly: In vitro binding affinity to human 5-hydroxytryptamine 1A receptor.

In assay [2] the target is T2, 5-hydroxytryptamine receptor 1D (Homo sapiens, UniProt P28221). Put plainly: Binding affinity to cloned human 5-hydroxytryptamine 1D receptor.
For the next assay, the target named is Histamine H1 receptor (Homo sapiens, UniProt P35367). Put plainly: Binding affinity to cloned Histamine H1 receptor.
The target of assay [3] is Muscarinic acetylcholine receptor M1 (Homo sapiens, UniProt P11229). Put plainly: (§1) Binding affinity to cloned Muscarinic acetylcholine receptor M1.
Assay [4] addresses T3, Muscarinic acetylcholine receptor M5 (Homo sapiens, UniProt P08912).
T3 sequence (P08912 whole entry): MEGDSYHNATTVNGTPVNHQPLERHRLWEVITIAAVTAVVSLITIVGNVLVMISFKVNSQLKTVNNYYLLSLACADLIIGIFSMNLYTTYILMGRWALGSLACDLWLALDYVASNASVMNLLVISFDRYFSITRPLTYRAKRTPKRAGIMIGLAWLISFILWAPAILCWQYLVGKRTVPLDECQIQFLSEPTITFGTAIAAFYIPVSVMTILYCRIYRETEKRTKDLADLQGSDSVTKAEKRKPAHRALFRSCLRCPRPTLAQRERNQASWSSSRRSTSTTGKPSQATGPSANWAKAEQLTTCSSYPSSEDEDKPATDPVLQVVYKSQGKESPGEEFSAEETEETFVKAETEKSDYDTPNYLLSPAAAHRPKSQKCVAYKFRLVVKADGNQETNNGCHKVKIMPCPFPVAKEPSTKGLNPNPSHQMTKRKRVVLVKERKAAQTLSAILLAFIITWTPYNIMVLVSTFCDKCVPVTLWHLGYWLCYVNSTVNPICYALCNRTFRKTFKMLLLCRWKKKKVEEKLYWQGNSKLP
Put plainly: Binding affinity to cloned Muscarinic acetylcholine receptor M5.

Assay [5] concerns the target T4, Muscarinic acetylcholine receptor M1 (Homo sapiens, UniProt P11229).
T4 sequence (P11229 whole entry): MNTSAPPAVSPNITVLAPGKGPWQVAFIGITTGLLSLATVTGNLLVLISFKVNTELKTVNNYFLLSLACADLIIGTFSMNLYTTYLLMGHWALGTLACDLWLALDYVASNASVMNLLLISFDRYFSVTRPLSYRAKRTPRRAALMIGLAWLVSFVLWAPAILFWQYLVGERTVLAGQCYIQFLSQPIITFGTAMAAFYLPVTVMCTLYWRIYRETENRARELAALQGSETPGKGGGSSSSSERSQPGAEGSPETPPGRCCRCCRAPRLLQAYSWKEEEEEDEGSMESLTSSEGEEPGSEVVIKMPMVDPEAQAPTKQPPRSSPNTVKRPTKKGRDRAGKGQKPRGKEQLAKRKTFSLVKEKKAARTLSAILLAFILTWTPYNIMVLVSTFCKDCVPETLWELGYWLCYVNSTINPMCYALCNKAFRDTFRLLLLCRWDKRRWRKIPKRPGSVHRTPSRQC
The description is as §1. This is another data set of the same source.

Assay [6] deals with T2, 5-hydroxytryptamine receptor 1D. The experiment in a line: In vitro binding affinity to human 5-hydroxytryptamine 1D receptor.

Each structure is given as a SMILES string.

T2 sequence (P28221 whole entry): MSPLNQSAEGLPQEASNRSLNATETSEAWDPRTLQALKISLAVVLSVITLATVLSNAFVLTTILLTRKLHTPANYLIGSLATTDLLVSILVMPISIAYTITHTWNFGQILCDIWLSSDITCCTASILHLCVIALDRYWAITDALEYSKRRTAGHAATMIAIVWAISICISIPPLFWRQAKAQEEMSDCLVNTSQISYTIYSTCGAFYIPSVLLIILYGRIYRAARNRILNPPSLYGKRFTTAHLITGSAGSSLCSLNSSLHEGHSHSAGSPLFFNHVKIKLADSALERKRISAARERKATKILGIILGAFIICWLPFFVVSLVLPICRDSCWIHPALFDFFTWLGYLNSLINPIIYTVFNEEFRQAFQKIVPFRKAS
Sequence of Histamine H1 receptor (P35367 whole entry): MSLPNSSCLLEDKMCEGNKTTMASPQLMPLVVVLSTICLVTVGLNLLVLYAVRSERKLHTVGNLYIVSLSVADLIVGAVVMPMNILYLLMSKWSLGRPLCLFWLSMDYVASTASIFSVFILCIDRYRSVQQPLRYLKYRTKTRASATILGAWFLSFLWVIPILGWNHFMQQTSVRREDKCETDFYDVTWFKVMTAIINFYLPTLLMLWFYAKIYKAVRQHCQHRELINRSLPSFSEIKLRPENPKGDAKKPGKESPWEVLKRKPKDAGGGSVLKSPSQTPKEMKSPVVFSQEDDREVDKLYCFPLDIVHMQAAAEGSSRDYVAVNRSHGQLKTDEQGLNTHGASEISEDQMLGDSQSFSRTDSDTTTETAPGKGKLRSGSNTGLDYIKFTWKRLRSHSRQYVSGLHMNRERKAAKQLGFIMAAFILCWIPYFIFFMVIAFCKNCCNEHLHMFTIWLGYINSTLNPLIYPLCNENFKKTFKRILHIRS

As for `Fc1ccccc1N1CCN(Cc2c[nH]c3ncccc23)CC1`, the Ki in assay [1] is 0.991 µM; in assay [2], over 10 µM; at Histamine H1 receptor, over 10 µM; in assay [3], over 10 µM; in assay [4], over 10 µM.

For `CCc1ccc(N2CCN(Cc3c[nH]c4ncccc34)CC2)cc1`, the Ki (in assay [1]; in assay [2]; at Histamine H1 receptor; in assay [5]; in assay [4]) was over 10 µM throughout.

Consider `COc1ccc(N2CCN(Cc3c[nH]c4ncccc34)CC2)cc1`, for which the Ki (in assay [1]; in assay [6]; at Histamine H1 receptor; in assay [3]; in assay [4]) was over 10 µM each time.

In the case of `CSc1ccc(N2CCN(Cc3c[nH]c4ncccc34)CC2)cc1`, the Ki (in assay [1]; in assay [6]; at Histamine H1 receptor; in assay [3]; in assay [4]) was over 10 µM each time.

Turning to `c1ccc(-c2ccc(N3CCN(Cc4c[nH]c5ncccc45)CC3)cc2)cc1`, the Ki (in assay [1]; in assay [6]; at Histamine H1 receptor; in assay [5]; in assay [4]) was over 10 µM in each case.

Take `CCCc1ccc(N2CCN(Cc3c[nH]c4ncccc34)CC2)cc1`: the Ki (in assay [1]; in assay [2]; at Histamine H1 receptor; in assay [5]; in assay [4]) was over 10 µM throughout.

As to `Fc1ccc(N2CCN(Cc3c[nH]c4ncccc34)CC2)cc1`, the Ki is 2.76 µM in assay [1]; over 10 µM in assay [2]; over 10 µM on Histamine H1 receptor; over 10 µM in assay [3]; over 10 µM in assay [4].

Consider `C=Cc1ccc(N2CCN(Cc3c[nH]c4ncccc34)CC2)cc1`, for which the Ki in assay [1] is 3.97 µM; in assay [2] it was over 10 µM; at Histamine H1 receptor, over 10 µM; in assay [5], over 10 µM; in assay [4] it was over 10 µM.

Regarding `COc1ccccc1N1CCN(Cc2c[nH]c3ncccc23)CC1`, the Ki in assay [1] is 0.406 µM; in assay [6], over 10 µM; on Histamine H1 receptor, over 10 µM; in assay [3] it was over 10 µM; in assay [4] it was over 10 µM.
